Measurements as given in article PMC11285948, “The effects of CYP2B6 inactivators on the metabolism of ciprofol” (PLOS ONE, 2024).
Where “and” joins values, the source holds several entries; their conditions need not be identical. Identical values can stand only once.

What was measured:
[1] = tested on: human liver microsomes (HLMs); assay: Ciprofol metabolism in HLM incubation system (incubation time, protein concentration, enzyme kinetics); assay type: in vitro ADME; conditions: for reduction of ciprofol ΔC (Enzymatic reaction kinetics): ΔC1-ΔC3 and Mean; for ciprofol concentration in incubation system (Incubation time) / ciprofol concentration in incubation system (Liver microsomal protein concentration): C1-C3 and Mean; for ciprofol concentration in incubation system (Liver microsomal protein concentration): ciprofol 40 μg·mL^-1, 60 min
Description: The volume of the incubation system was 200 μL and included 2 μL of substrate (ciprofol), 8 μL of rat liver microsomes (RLMs) or 6 μL of human liver microsomes (HLMs), 12 μL of NADPH generation system of solution (solution A 10 μL, solution B 2 μL), and the remaining volume was PBS. The incubation was performed in a water bath at a constant temperature of 37°C, and each sample was incubated three times in parallel.
The incubation system was removed from the water bath, and the reaction was terminated immediately by adding 800 μL of reaction termination solution (acetonitrile solution containing 5 μg·mL^-1 D6-ciprofol at 4°C). The mixture was vortexed for 2 min and centrifuged for 15 min, after which the supernatant was transferred to an autosampler vial for HPLC-MS/MS detection.
The concentrations of ciprofol and liver microsomal proteins in the RLM incubation system were set at 25 μg·mL^-1 and 0.8 mg·mL^-1, respectively, whereas those in the HLM incubation system were set at 40 μg·mL^-1 and 0.6 mg·mL^-1, respectively. Samples were obtained and assayed after 0, 10, 20, 30, 40, 60, 80, 100 and 120 min of incubation, and the optimum incubation time was determined according to the decreasing trend in ciprofol concentration.
The ciprofol concentrations in the RLM and HLM incubation systems were set at 25 and 40 μg·mL^-1, respectively. The liver microsomal protein concentrations were 0, 0.1, 0.2, 0.4, 0.6, 0.8 and 1.0 mg·mL^-1. The optimal protein concentration in the incubation system was determined based on the reduction of ciprofol (ΔC) after 40 min of incubation in RLMs and 60 min in HLMs.
The liver microsomal protein concentrations in the RLM incubation system and the HLM incubation system were 0.8 mg·mL^-1 and 0.6 mg·mL^-1, and the cells were incubated for 40 min and 60 min, respectively. The ciprofol concentrations in the incubation system were set at 4, 8, 16, 32, 48 and 80 μg·mL^-1, and the kinetic parameters of ciprofol metabolism were investigated based on ΔC values at different initial ciprofol concentrations (C0).
The substrate elimination method was employed in this study, and GraphPad Prism 8.0.2 software was used for statistical processing, including determination of the kinetic parameters of ciprofol metabolism and the IC50 values of psoralen and clopidogrel for ciprofol metabolism. The maximum velocity (Vmax), Michaelis constant (Km) and intrinsic clearance (CLint) were calculated using the […]: V=Vmax×[S]/Km+[S] CLint=Vmax/Km

[2] = Stability of ciprofol QC samples in rat plasma; assay type: physicochemical; design: calculated concentration, mean: unit: ng/mL; conditions: for ciprofol found after storage, Autosampler / ciprofol found after storage, Room Temperature / ciprofol found after storage, Freeze–Thaw / ciprofol found after storage, Long-Term Storage / Stability: mean calculated concentration / Stability: calculated concentration: rat plasma; for ciprofol found after storage, Autosampler / ciprofol found after storage, Room Temperature / ciprofol found after storage, Freeze–Thaw / ciprofol found after storage, Long-Term Storage: n = 5; for Stability: calculated concentration: single replicates
Description: 5 μL of IS solution (2.5 μg·mL^-1 D6-ciprofol) was added to 100 μL of plasma and mixed. Then, 300 μL of acetonitrile was added. The mixture was vortexed for 2 min and centrifuged for 10 min, and the supernatant was transferred to an autosampler vial for HPLC-MS/MS detection.
To investigate the stability of ciprofol under a variety of conditions, three groups of liver microsome QC sample solutions were prepared, and one group was immediately processed and analysed as described in Section 2.4.2. Another group was stored at room temperature for 8 hours before treatment and assessment. The other group was treated and placed in the autosampler (4°C) for 24 h and subsequently analysed. In addition, simulated plasma QC samples were prepared in five groups: one group was processed and measured immediately as described in Section 2.4.3, and another group was placed in the autosampler for 24 h after treatment. The other three groups were placed at room temperature for 8 h, stored at -40°C for 30 d, frozen and thawed three times, respectively, and then processed and detected as described in Section 2.4.3. All the above samples were tested in parallel in five batches.

[3] = Autosampler for 24 h, QC level H
[4] = Autosampler for 24 h, QC level L
[5] = Autosampler for 24 h, QC level M
[6] = Feeeze - Thaw for three times, QC level H
[7] = Feeeze - Thaw for three times, QC level L
[8] = Feeeze - Thaw for three times, QC level M
[9] = Room - Temperature for 8 h, QC level H
[10] = Room - Temperature for 8 h, QC level L
[11] = Room - Temperature for 8 h, QC level M

## CC(C)c1cccc([C@H](C)C2CC2)c1O [ciprofol]
[1]; HLMs 0.6 mg·mL^-1, 60 min
  Km of ciprofol metabolism: 40.07 µg/mL
  Vmax of ciprofol metabolism: 42.39 ng·min^-1·mg protein^-1
[1]; HLMs 0.6 mg·mL^-1, 60 min, initial ciprofol C 4 μg/mL
  reduction of ciprofol ΔC (Enzymatic reaction kinetics): 3.114 µg/mL and 3.093 µg/mL and 3.175 µg/mL and 3.13 µg/mL
[1]; HLMs 0.6 mg·mL^-1, 60 min, initial ciprofol C 8 μg/mL
  reduction of ciprofol ΔC (Enzymatic reaction kinetics): 6.89 µg/mL and 6.98 µg/mL and 7.022 µg/mL and 6.96 µg/mL
[1]; HLMs 0.6 mg·mL^-1, 60 min, initial ciprofol C 16 μg/mL
  reduction of ciprofol ΔC (Enzymatic reaction kinetics): 12.73 µg/mL and 12.88 µg/mL and 12.21 µg/mL and 12.61 µg/mL
[1]; HLMs 0.6 mg·mL^-1, 60 min, initial ciprofol C 32 μg/mL
  reduction of ciprofol ΔC (Enzymatic reaction kinetics): 17.77 µg/mL and 19.4 µg/mL and 16.95 µg/mL and 18.04 µg/mL
[1]; HLMs 0.6 mg·mL^-1, 60 min, initial ciprofol C 48 μg/mL
  reduction of ciprofol ΔC (Enzymatic reaction kinetics): 23.33 µg/mL and 25.1 µg/mL and 23.91 µg/mL and 24.11 µg/mL
[1]; HLMs 0.6 mg·mL^-1, 60 min, initial ciprofol C 80 μg/mL
  reduction of ciprofol ΔC (Enzymatic reaction kinetics): 28.42 µg/mL and 27.74 µg/mL and 27.36 µg/mL and 27.84 µg/mL
[1]; HLMs 0.6 mg·mL^-1, ciprofol 40 μg·mL^-1, T 0 min
  ciprofol concentration in incubation system (Incubation time): 37.89 µg/mL and 38.98 µg/mL and 40.56 µg/mL and 39.14 µg/mL
[1]; HLMs 0.6 mg·mL^-1, ciprofol 40 μg·mL^-1, T 10 min
  ciprofol concentration in incubation system (Incubation time): 36.11 µg/mL and 34.79 µg/mL and 36.39 µg/mL and 35.76 µg/mL
[1]; HLMs 0.6 mg·mL^-1, ciprofol 40 μg·mL^-1, T 20 min
  ciprofol concentration in incubation system (Incubation time): 31.73 µg/mL and 29.56 µg/mL and 32.69 µg/mL and 31.33 µg/mL
[1]; HLMs 0.6 mg·mL^-1, ciprofol 40 μg·mL^-1, T 30 min
  ciprofol concentration in incubation system (Incubation time): 28.14 µg/mL and 24.88 µg/mL and 28.27 µg/mL and 27.10 µg/mL
[1]; HLMs 0.6 mg·mL^-1, ciprofol 40 μg·mL^-1, T 40 min
  ciprofol concentration in incubation system (Incubation time): 26.01 µg/mL and 21.75 µg/mL and 25.61 µg/mL and 24.46 µg/mL
[1]; HLMs 0.6 mg·mL^-1, ciprofol 40 μg·mL^-1, T 60 min
  ciprofol concentration in incubation system (Incubation time): 21.50 µg/mL and 18.33 µg/mL and 20.08 µg/mL and 19.97 µg/mL
[1]; HLMs 0.6 mg·mL^-1, ciprofol 40 μg·mL^-1, T 80 min
  ciprofol concentration in incubation system (Incubation time): 19.59 µg/mL and 17.50 µg/mL and 18.53 µg/mL and 18.54 µg/mL
[1]; HLMs 0.6 mg·mL^-1, ciprofol 40 μg·mL^-1, T 100 min
  ciprofol concentration in incubation system (Incubation time): 18.42 µg/mL and 15.96 µg/mL and 17.83 µg/mL and 17.40 µg/mL
[1]; HLMs 0.6 mg·mL^-1, ciprofol 40 μg·mL^-1, T 120 min
  ciprofol concentration in incubation system (Incubation time): 17.25 µg/mL and 14.82 µg/mL and 15.95 µg/mL and 16.01 µg/mL
[1]; HLMs, Cprotein 0 mg/mL
  ciprofol concentration in incubation system (Liver microsomal protein concentration): 39.87 µg/mL and 40.23 µg/mL and 38.51 µg/mL and 39.54 µg/mL
[1]; HLMs, Cprotein 0.1 mg/mL
  ciprofol concentration in incubation system (Liver microsomal protein concentration): 35.11 µg/mL and 36.09 µg/mL and 35.34 µg/mL and 35.51 µg/mL
[1]; HLMs, Cprotein 0.2 mg/mL
  ciprofol concentration in incubation system (Liver microsomal protein concentration): 30.78 µg/mL and 30.52 µg/mL and 29.4 µg/mL and 30.23 µg/mL
[1]; HLMs, Cprotein 0.4 mg/mL
  ciprofol concentration in incubation system (Liver microsomal protein concentration): 24.5 µg/mL and 24.31 µg/mL and 22.53 µg/mL and 23.78 µg/mL
[1]; HLMs, Cprotein 0.6 mg/mL
  ciprofol concentration in incubation system (Liver microsomal protein concentration): 20.49 µg/mL and 20.86 µg/mL and 19.64 µg/mL and 20.33 µg/mL
[1]; HLMs, Cprotein 0.8 mg/mL
  ciprofol concentration in incubation system (Liver microsomal protein concentration): 19.89 µg/mL and 20.13 µg/mL and 19.02 µg/mL and 19.68 µg/mL
[1]; HLMs, Cprotein 1 mg/mL
  ciprofol concentration in incubation system (Liver microsomal protein concentration): 19.11 µg/mL and 19.68 µg/mL and 20.54 µg/mL and 19.78 µg/mL
[1]; HLMs, CLint=Vmax/Km
  CLint of ciprofol: 1.06 mL·min^-1·mg protein^-1
[2]; QC sample level H, mean of H1-H5
  calculated concentration, mean: 1597.51
[2]; QC 30 ng·mL^-1, autosampler for 24 h after treatment
  ciprofol found after storage, Autosampler: 32.80 ± 1.93 ng/mL
[2]; QC 30 ng·mL^-1, room temperature for 8 h
  ciprofol found after storage, Room Temperature: 30.50 ± 2.27 ng/mL
[2]; QC 30 ng·mL^-1, three freeze–thaw cycles
  ciprofol found after storage, Freeze–Thaw: 33.49 ± 2.03 ng/mL
[2]; QC 30 ng·mL^-1, −40°C for 30 days
  ciprofol found after storage, Long-Term Storage: 32.70 ± 2.85 ng/mL
[2]; QC 250 ng·mL^-1, autosampler for 24 h after treatment
  ciprofol found after storage, Autosampler: 250.78 ± 12.31 ng/mL
[2]; QC 250 ng·mL^-1, room temperature for 8 h
  ciprofol found after storage, Room Temperature: 227.31 ± 5.60 ng/mL
[2]; QC 250 ng·mL^-1, three freeze–thaw cycles
  ciprofol found after storage, Freeze–Thaw: 245.21 ± 3.43 ng/mL
[2]; QC 250 ng·mL^-1, −40°C for 30 days
  ciprofol found after storage, Long-Term Storage: 242.73 ± 9.08 ng/mL
[2]; QC 1600 ng·mL^-1, autosampler for 24 h after treatment
  ciprofol found after storage, Autosampler: 1576.27 ± 41.67 ng/mL
[2]; QC 1600 ng·mL^-1, room temperature for 8 h
  ciprofol found after storage, Room Temperature: 1464.24 ± 98.79 ng/mL
[2]; QC 1600 ng·mL^-1, three freeze–thaw cycles
  ciprofol found after storage, Freeze–Thaw: 1604.92 ± 96.88 ng/mL
[2]; QC 1600 ng·mL^-1, −40°C for 30 days
  ciprofol found after storage, Long-Term Storage: 1597.51 ± 83.93 ng/mL
[2]; -40℃ for 30 d, QC level L
  Stability: mean calculated concentration: 31.38 ng/mL
  Stability: calculated concentration: 34.12 ng/mL and 32.66 ng/mL and 29.27 ng/mL and 33.13 ng/mL and 27.74 ng/mL
[2]; -40℃ for 30 d, QC level M
  Stability: mean calculated concentration: 242.73 ng/mL
  Stability: calculated concentration: 234.27 ng/mL and 256.93 ng/mL and 236.05 ng/mL and 240.78 ng/mL
[2]; [3]
  Stability: mean calculated concentration: 1576.27 ng/mL
  Stability: calculated concentration: 1522.23 ng/mL and 1628.44 ng/mL and 1549.96 ng/mL and 1580.01 ng/mL and 1600.71 ng/mL
[2]; [4]
  Stability: mean calculated concentration: 31.48 ng/mL
  Stability: calculated concentration: 32.65 ng/mL and 31.94 ng/mL and 29.92 ng/mL and 33.65 ng/mL and 29.23 ng/mL
[2]; [5]
  Stability: mean calculated concentration: 250.78 ng/mL
  Stability: calculated concentration: 249.99 ng/mL and 245.49 ng/mL and 259.61 ng/mL and 233.66 ng/mL and 265.15 ng/mL
[2]; [6]
  Stability: mean calculated concentration: 1604.92 ng/mL
  Stability: calculated concentration: 1500.04 ng/mL and 1659.28 ng/mL and 1498.65 ng/mL and 1682.66 ng/mL and 1683.96 ng/mL
[2]; [7]
  Stability: mean calculated concentration: 32.14 ng/mL
  Stability: calculated concentration: 33.17 ng/mL and 29.49 ng/mL and 30.69 ng/mL and 33.26 ng/mL and 34.09 ng/mL
[2]; [8]
  Stability: mean calculated concentration: 245.21 ng/mL
  Stability: calculated concentration: 248.65 ng/mL and 241.72 ng/mL and 249.13 ng/mL and 243.02 ng/mL and 243.50 ng/mL
[2]; [9]
  Stability: mean calculated concentration: 1464.24 ng/mL
  Stability: calculated concentration: 1500.17 ng/mL and 1462.05 ng/mL and 1317.85 ng/mL and 1591.16 ng/mL and 1449.95 ng/mL
[2]; [10]
  Stability: mean calculated concentration: 29.27 ng/mL
  Stability: calculated concentration: 29.52 ng/mL and 32.22 ng/mL and 27.05 ng/mL and 30.35 ng/mL and 27.24 ng/mL
[2]; [11]
  Stability: mean calculated concentration: 227.31 ng/mL
  Stability: calculated concentration: 220.38 ng/mL and 226.72 ng/mL and 228.84 ng/mL and 235.64 ng/mL and 224.99 ng/mL
